Test results taken from patent US8071645B2, “Systems and methods for treating human inflammatory and proliferative diseases and wounds, with fatty acid metabolism inhibitors and/or glycolytic inhibitors” (The Regents of the University of Colorado, priority 2003, dated 2011).

Columns and labels:
B16F1 melanoma cells [1] = experiment: % death of B16F1 cells by flow cytometry; type: cell-based
Protocol: (§1) Statistical Analysis, Percents, and Geometric Mean Values Percents. Gating is a tool provided by Cell Quest software and allows for the analysis of a certain population of cells. Gating around both the live and dead cell populations gave a percent of the cell numbers that was in each population. After the gates were drawn, a percent value of dead cells was calculated by taking the number of dead cells divided by the number of total cells and multiplying by one hundred.
(§2) This example illustrates an embodiment of the invention, where multi-drug resistant cancer cells were exposed to compositions of the invention. Analysis of the cells was performed using flow cytometry. The flow cytometry experiments were performed as follows. The cells were harvested, counted, and resuspended as described above. For DNA staining, the cells were washed and resuspended in ice-cold PBS and fixed by the dropwise addition of 95% ethanol. The cells were then incubated for 30 minutes on ice, washed, and resuspended in PBS containing 1% formaldehyde and 0.01% Tween. The cells were incubated with 50 units of DNAse and washed with PBS containing 5% DNAse. The cells were then incubated with anti DNA Fab (166, kind gift of Dr. Susan Wallace, University of Vermont), then washed and stained with a fluorescein conjugated second step anti-mouse immunoglobulin. The cells were then washed and resuspended in PBS/3% BSA/1% formaldehyde. The cells were stained for intracellular H2O2 using 6-carboxy-2′,7′-dichlorodihydrofluorescein diacetate (DCF-DA, Molecular Probes, Eugene, Oreg.). The cells were incubated with 1 mM DCF-DA for 20 minutes, washed twice in PBS containing 5% fetal calf serum and analyzed using flow cytometry. The mitochondrial membrane potential was assessed using MitoTracker Red (CM-H2XROS, Molecular Probes, Eugene, Oreg.). The cells were resuspended in warm (37° C.) PBS containing a final concentration of 0.5 micromolar of dye. The cells were then incubated for 30 minutes, pelleted, and resuspended in prewarmed medium for analysis. The data was acquired on a Coulter Elite Epics or Excel flow cytometer (Coulter, Hialeah, Fla.) and analyzed with CellQuest software, (Becton Dickinson, San Jose, Calif.). […] Each sample population was classified for cell size (forward scatter) and complexity (side scatter), gated on a population of interest and evaluated using 40,000 cells. Each figure describing flow cytometric data represents one of at least four replicate experiments.
All cell lines in this example were cultured in RPMI 1640 culture medium. The medium was supplemented with 5% fetal bovine serum (“FBS”), 2 mM L-Glutamine, 500 units/mL pennicillin/500 micrograms/mL of streptomycin, 10 mM HEPES Buffer, 10^−5 M 2-mercaptoethanol (“2-ME”), 1 mM MEM Sodium Pyruvate, and 0.04 micrograms/mL of Gentamicin (All reagents from Gibco BRL). The cells were maintained at 37° C. in a humidified atmosphere under 5% CO2 in air using standard cell culture techniques known to those of ordinary skill in the art.
The flow cytometry experiments were performed as follows. Once the samples were prepared and transferred into flow cytometric tubes, the samples were analyzed on a Becton/Dickinson Flow Cytometer. For antibodies that were PE conjugated and for the MitoTracker Red experiments, a program for red-colored fluorochromes was utilized. […] Statistical analysis, percents, and geometric mean values percents were calculated as described above.

HL60 MDR cells [2] = experiment: % death of HL60 MDR cells by flow cytometry; type: cell-based, human; conditions: for HL60 MDR % Death: Table 1, 25 ug/mL Cerulenin
Protocol: (§3) Dot plots as a function of live versus dead cells. The cells were cultured at a concentration of 0.5 to 1 million cells per ml. Cells were untreated or treated with etomoxir or 2-deoxy-D-glucose at a concentration of 2.5 mM at the indicated concentrations for either 24 or 48 hours. In additional experiments, under each of these culture conditions, the cells were cultured for 24 hours at which time point, polyclonal anti-UCP-2 was added at a 1:1000 dilution of stock provided by Alpha Diagnostics, San Antonio, Tex. Cells were harvested and analyzed by flow cytometry. Each dot on the dot plots of FIGS. 1, 3, 5, 7, 9, and 11 represents one cell. Five thousand cells were assessed for forward scatter (FS), as a function of cell size, versus side scatter (SS), as a function of cellular granularity. The upper ellipse represents live cells by these criterion and the lower ellipse in each dot plot represents the dead cells.
as §1, §2
All cell lines in this example were cultured in RPMI 1640 culture medium. The medium was supplemented with 5% fetal bovine serum (“FBS”), 2 mM L-Glutamine, 500 units/mL pennicillin/500 micrograms/mL of streptomycin, 10 mM HEPES Buffer, 10^−5 M 2-mercaptoethanol (“2-ME”), 1 mM MEM Sodium Pyruvate, and 0.04 micrograms/mL of Gentamicin (All reagents from Gibco BRL). The cells were maintained at 37° C. in a humidified atmosphere under 5% CO2 in air using standard cell culture techniques known to those of ordinary skill in the art. […]

HL60 cells [3] = experiment: microscopy images of HL60 cells treated with cerulenin; type: cell-based, human; conditions: FIG. 4C
Text: (§4) In FIG. 4, microscopy images of HL60 and HL60 MDR (“multi-drug resistant”) cells treated with cerulenin (“Treated”) and not treated with cerulenin (“No Stn”) are shown.

L1210 DDP cells = experiment: % death of L1210 DDP cells by flow cytometry; type: cell-based; conditions: for L1210 DDP % Death: Table 2, 25 ug/mL Cerulenin
Protocol: as §1
(§5) This example illustrates an embodiment of the invention, where multi-drug resistant cancer cells were exposed to compositions of the invention. Analysis of the cells was performed using flow cytometry. The flow cytometry experiments were performed as follows. The cells were harvested, counted, and resuspended as described above. For DNA staining, the cells were washed and resuspended in ice-cold PBS and fixed by the dropwise addition of 95% ethanol. The cells were then incubated for 30 minutes on ice, washed, and resuspended in PBS containing 1% formaldehyde and 0.01% Tween. The cells were incubated with 50 units of DNAse and washed with PBS containing 5% DNAse. […] The cells were incubated with 1 mM DCF-DA for 20 minutes, washed twice in PBS containing 5% fetal calf serum and analyzed using flow cytometry. The mitochondrial membrane potential was assessed using MitoTracker Red (CM-H2XROS, Molecular Probes, Eugene, Oreg.). […] The data was acquired on a Coulter Elite Epics or Excel flow cytometer (Coulter, Hialeah, Fla.) and analyzed with CellQuest software, (Becton Dickinson, San Jose, Calif.). […] Each sample population was classified for cell size (forward scatter) and complexity (side scatter), gated on a population of interest and evaluated using 40,000 cells. […]
The flow cytometry experiments were performed as follows. Once the samples were prepared and transferred into flow cytometric tubes, the samples were analyzed on a Becton/Dickinson Flow Cytometer. […] Statistical analysis, percents, and geometric mean values percents were calculated as described above.

HL60 MDR cells [4] = experiment: microscopy images of HL60 MDR cells treated with cerulenin; type: cell-based, human; conditions: FIGS. 4E and 4F
Text: as §4

B16F1 melanoma cells [5] = experiment: B16F1 melanoma cells exposed to cerulenin, then injected into male mice; type: in vivo
Protocol: Highly carcinogenic B16F1 melanoma cells were either exposed (“treated”) or not exposed to cerulenin, then injected into male mice.
Day 0 @2:45 pm injected with B16F1 10^6 cells in PBS, Treatment w/25 ug/ml cerulenin 5.0 hrs
Day 0 injected w/B16F1 10^6 cells in PBS, Treatment w/25 ug/ml cerulenin 5.0 h
Day 0 @2:45 pm injected w/B16F1 (10^6 cells in PBS) Treatment w/25 ug/ml cerulenin 5 h

HL60 cells [6] = experiment: % death of HL60 cells by flow cytometry; type: cell-based, human; conditions: Table 1, 25 ug/mL Cerulenin
Protocol: as §1
as §5, with “above.” for “above. For DNA staining, the cells were washed and resuspended in ice-cold PBS and fixed by the dropwise addition of 95% ethanol. The cells were then incubated for 30 minutes on ice, washed, and resuspended in PBS containing 1% formaldehyde and 0.01% Tween. The cells were incubated with 50 units of DNAse and washed with PBS containing 5% DNAse.”

L1210 cells = experiment: % death of L1210 cells by flow cytometry; type: cell-based; conditions: Table 2; 25 ug/mL Cerulenin; 7.0 Hours
Protocol: as §1
as §5, with “above.” for “above. For DNA staining, the cells were washed and resuspended in ice-cold PBS and fixed by the dropwise addition of 95% ethanol. The cells were then incubated for 30 minutes on ice, washed, and resuspended in PBS containing 1% formaldehyde and 0.01% Tween. The cells were incubated with 50 units of DNAse and washed with PBS containing 5% DNAse.”

[7] = tested on: RD cells (rhabdomyosarcoma cells); experiment: percent death of RD cells by flow cytometry; type: cell-based
Protocol: as §3, §1
Referring to FIGS. 29 and 30, RD cells (rhabdomyosarcoma cells—not drug resistant), cultured as described above under “Materials and Methods” were untreated or treated with etomoxir, with 2-deoxy-D-glucose, or with a combination of etomoxir and 2-deoxy-D-glucose, at concentrations indicated in FIG. 29 for 24 hours. Cells were harvested and analyzed by flow cytometry. […] The percent of cell deaths for RD cells after 24 hours was: (a) 31% when untreated, (b) 57% when treated with etomoxir alone, (c) 46% when treated with 2-deoxy-D-glucose alone, and (d) 66% when treated with the combination of etomoxir and 2-deoxy-D-glucose.
Referring to FIGS. 33 and 34, RD cells, cultured as described in Example 22, were untreated or treated with etomoxir, with 2-deoxy-D-glucose, or with a combination of etomoxir and 2-deoxy-D-glucose, at concentrations indicated in FIG. 33 for 48 hours. Cells were harvested and analyzed by flow cytometry. […] The percent of cell deaths for RD cells after 48 hours was: (a) 36% when untreated, (b) 64% when treated with etomoxir alone, (c) 63% when treated with 2-deoxy-D-glucose alone, and (d) 68% when treated with the combination of etomoxir and 2-deoxy-D-glucose.

HL60 MDR tumor = HL60 MDR tumor implanted in nude mice, tumor volume; type: in vivo
Text: Tumor implantation. Mice were purchased from the Animal Production Program of National Cancer Institute, Frederick, Md. The animals used were Athymic Ncr-nu/nu (strain code 01B74). HL60 MDR cells were harvested and reconstituted at 1 million cells per 100 microliters of phosphate buffered saline. One million tumor cells per injection site were implanted subcutaneously on two sites of the animal's back. Treatments began at exactly seven days post tumor implantation. Tumor size/volume was monitored twice weekly using measurement calipers, with the formula Tumor Volume=π×(short diameter)^2×(long diameter)/6.
Mice experiments with fatty acid metabolism and glycolytic inhibitors. Fatty acid metabolism inhibitors were exemplified by etomoxir at 200 micrograms/day. Glycolytic inhibitors were exemplified by 2-deoxy-D-glucose at 2.5 mM in 100 microliters daily. The combination was administered daily, etomoxir at 200 micrograms and 2-deoxy-D-glucose at 2.5 mM in 100 microliters. All drugs were administered intra-peritoneally. 5-Fluoro-uracil, at 20 mg per kilogram mouse, was injected intra-peritoneally once a week
HL60 MDR human leukemia cells were cultured and implanted in nude mice as described above under “Materials and Methods”. The mice were given 200 ug of Etomoxir, 2.5 mM 2-Deoxy-D-glucose, or both 200 ug of Etomoxir and 2.5 mM 2-Deoxy-D-glucose given daily by IP injection. Treatment began exactly one week after tumor implantation.

## C/C=C/C/C=C/CCC(=O)[C@H]1O[C@H]1C(N)=O [Cerulenin, cerulenin]
B16F1 melanoma cells [1]; Table 1; 25 ug/mL Cerulenin; 5.0 Hours
  B16F1 % Death: 61%
B16F1 melanoma cells [1]; Table 1; 25 ug/mL Cerulenin; 24 Hours
  B16F1 % Death: 90%
B16F1 melanoma cells [1]; Table 2; 25 ug/mL Cerulenin; 5.0 Hours
  B16F1 % Death: 67%
B16F1 melanoma cells [1]; Table 2; 25 ug/mL Cerulenin; 24 Hours
  B16F1 % Death: 72%
B16F1 melanoma cells [1]; Table 2; 24 Hours; 25 ug/mL Cerulenin
  B16F1 % Death: 89%
HL60 MDR cells [2]; HL60 MDR, after treatment with cerulenin
  cell death compared to control and non-multidrug resistant cancer cells: greater amounts of cell death
HL60 MDR cells [2]; 2.0 Hours
  HL60 MDR % Death: 13%
HL60 MDR cells [2]; 24 Hours
  HL60 MDR % Death: 99.6%
HL60 cells [3]
  cell survival seen in microscopy images: large numbers of the cells survived
L1210 DDP cells; L1210 DDP, after treatment with cerulenin
  cell death compared to control and non-multidrug resistant cancer cells: greater amounts of cell death
L1210 DDP cells; 7.0 Hours
  L1210 DDP % Death: 14%
L1210 DDP cells; 24 Hours
  L1210 DDP % Death: 92%
HL60 MDR cells [4]
  cell death seen in microscopy images: large numbers of cell death
B16F1 melanoma cells [5]; male mice injected with B16F1 cells treated with 25 ug/ml cerulenin 5.0 hrs
  development of lethal cancers: did not develop lethal cancers
B16F1 melanoma cells [5]; single mice (#7, #8, #9), 10^6 B16F1 cells treated w/25 ug/ml cerulenin 5.0 hrs, Day 9
  tumor observation, Day 9: no visible sign of tumors
B16F1 melanoma cells [5]; single mice (#7, #8, #9), 10^6 B16F1 cells treated w/25 ug/ml cerulenin 5.0 hrs, Day 12
  tumor observation, Day 12: no visible tumors
B16F1 melanoma cells [5]; single mice (#7, #8, #9), 10^6 B16F1 cells treated w/25 ug/ml cerulenin 5.0 hrs, Day 13
  tumor observation, Day 13: no visible tumors
HL60 cells [6]; 2.0 Hours
  HL60 % Death: 11%
HL60 cells [6]; 24 Hours
  HL60 % Death: 44%
L1210 cells
  L1210 % Death: 27%

## O=CC[C@@H](O)[C@H](O)[C@H](O)CO [2-deoxy-D-glucose]
HL60 MDR cells [2]; HL60 MDR, 24 hours, 2-deoxy-D-glucose at 2.5 mM, etomoxir as in FIG. 27
  percent of cell deaths: 16%
HL60 MDR cells [2]; HL60 MDR, 48 hours, concentrations as in FIG. 31
  percent of cell deaths: 38%
[7]; 24 hours, concentrations as in FIG. 29
  percent of cell deaths: 46%
[7]; 48 hours, concentrations as in FIG. 33
  percent of cell deaths: 63%
HL60 MDR tumor; 21 day period, single agent
  tumor growth versus control: increase in tumor growth
HL60 MDR tumor; Day 7 after implantation (start of treatment), 200 ug Etomoxir and/or 2.5 mM 2-Deoxy-D-glucose daily IP
  tumor volume, Day 7: 35 mm^3
HL60 MDR tumor; Day 9, 200 ug Etomoxir and/or 2.5 mM 2-Deoxy-D-glucose daily IP
  tumor volume, Day 9: 51.56 mm^3
HL60 MDR tumor; Day 15, 200 ug Etomoxir and/or 2.5 mM 2-Deoxy-D-glucose daily IP
  tumor volume, Day 15: 158.55 mm^3
HL60 MDR tumor; Day 21, 200 ug Etomoxir and/or 2.5 mM 2-Deoxy-D-glucose daily IP
  tumor volume, Day 21: 1,181.61 mm^3
